Assay results reported in patent publication US10854312B2, “Selective peptide antagonists” (BIONIZ, LLC, priority 2013, dated 2020).
“Also recorded” adds a separate entry of the source. No end group written: not given here.

Test system: human IL-15
Assay: CTLL-2 proliferation assay (WST-1), IL-15
Type: cell-based
Details: murine CTLL-2 cells, 1 nM human IL-15, BNZ132-1 50 and 500 nM, WST-1 OD450
Experimental: FIG. 6A-FIG. 6E presents inhibitory spectrum of BNZ132-1 over γc- and non-γc-cytokines. […] Neutralizing antibodies against each cytokine (R & D systems, 5 μg ml^−1) were included as controls. After 20 h, the cells were pulsed with WST-1 (Clontech) and OD450 of each well was measured after 6 h. A 19-mer scrambled peptide was used as a negative control at 5 μM. The experiments were conducted in triplicate (applies to all experiments in FIG. 6A-FIG. 6E). The result represents one of at least three independent experiments (applies to all experiments in FIG. 6A-FIG. 6E). […] In PT-18 proliferation assay, PT-18β or PT-18h21Rα cells were withdrawn of mouse IL-3 for 12 h before the experiment. Cells were then incubated with 1 nM of mouse IL-4, mouse IL-9, or mouse IL-21 in the presence or absence of the indicated doses (μM) of BNZ132-1. Neutralizing antibodies to each cytokine (5 μg ml^−1, except for anti-mouse IL-21 polyclonal antibody which was used at 15 μg ml−1) and a scrambled control peptide (5 μM) were included as negative controls. WST-1 assay was conducted as described above. […] In PT-18 h21Rα survival assay, PT-18h21Rα cells are described in the text. […] Both parental and hIL-21Rα positive PT-18 cells were washed and incubated without IL-3 for 12 h before the assay. […] The Y-axis represents the cpm (count per minute) values measured by a β-counter. […]

In the case of IKEFLQRFIHIVQSIINTS [BNZ132-1], the “inhibition of IL-15-induced proliferation of CTLL-2 cells” value is reported as “inhibited IL-2 and IL-15 with an equal efficacy; also recorded: efficiently inhibits; also recorded: inhibition of IL-2 and IL-15”.
